The source of these data is patent US6403633B2, “Heteroaryl amidines, methylamidines and guanidines, and use thereof as protease inhibitors” (3-Dimensional Pharmaceuticals, Inc., priority 1998, dated 2002).

Counter-ions that a name gives are not always drawn.

In the first assay the target is T1, bovine trypsin (Bos taurus, UniProt P00760).
T1 construct: purchased Sigma T8642
T1 sequence (P00760 24-246): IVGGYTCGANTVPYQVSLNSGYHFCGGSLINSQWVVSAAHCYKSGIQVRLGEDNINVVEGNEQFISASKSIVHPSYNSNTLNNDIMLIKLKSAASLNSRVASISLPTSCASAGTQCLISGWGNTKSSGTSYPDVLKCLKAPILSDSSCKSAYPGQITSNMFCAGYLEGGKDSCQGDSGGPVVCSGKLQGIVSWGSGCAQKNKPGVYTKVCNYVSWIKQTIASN
As to the kind of experiment: In vitro inhibition of purified enzymes, Ki determination: trypsin. The class given is biochemical. To be noted: substrate N-benzoyl-Phe-Val-Arg-p-nitroanilide 13 μM, [Trypsin]=4 nM, pH 7.5, 37° C. The source says: Reagents: All buffer salts were obtained from Sigma Chemical Company (St. Louis, Mo.), and were of the highest purity available. The enzyme substrates, N-benzoyl-Phe-Val-Arg-p-nitroanilide (Sigma B7632), N-benzoyl-Ile-Glu-Gly-Arg-p-nitroanilide hydrochloride (Sigma B2291), N-p-tosyl-Gly-Pro-Lys-p-nitroanilide (Sigma T6140), N-succinyl-Ala-Ala-Pro-Phe-p-nitroanilide (Sigma S7388) and N-CBZ-Val-Gly-Arg-p-nitroanilide (Sigma C7271) were obtained from Sigma. N-Succinyl-Ala-Ala-Pro-Arg-p-nitroanilide (BACHEM L-1720) and N-succinyl-Ala-Ala-Pro-Val-p-nitroanilide (BACHEM L-1770) were obtained from BACHEM (King of Prussia, Pa).
Human α-thrombin, human factor Xa and human plasmin were obtained from Enzyme Research Laboratories (South Bend, Ind.). […] In general, substrate concentrations are lower than the experimentally determined value for Km. […]
In a typical Ki determination, into each well of a 96 well plate is pipetted 280 μL of substrate solution, 10 μL of test compound solution, and the plate allowed to thermally equilibrate at 37° C. in a Molecular Devices plate reader for >15 minutes. Reactions were initiated by the addition of a 10 μL aliquot of enzyme and the absorbance increase at 405 nm is recorded for 15 minutes. […] The data are fit to a linear regression, and the value of the slope of the line calculated. The inverse of the slope is the experimentally determined Ki value. […]
In general, Ki refers to a dissociation constant, usually derived from enzyme kinetics or from competition with a known ligand. Regarding `COc1cccc(-c2csc(-c3cc(C(=N)N)sc3SC)n2)c1` [Example 8, 4-[4-(3-Methoxyphenyl)(1,3-thiazol-2-yl)]-5-methylthiothiophene-2-carboxamidine hydrochloride], the inhibition constant (Ki) came out at 858 nM.

Molecule `CSc1sc(C(=N)N)cc1-c1nc(-c2cccc(OCC(=O)N3CCOCC3)c2)cs1` [Example 52, 5-Methylthio-4-{4-[3-(2-morpholin-4-yl-2-oxoethox)phenyl](1,3-thiazol-2-yl)}thiophene-2-carboxamidine trifluoroacetate] returned a Ki of 474 nM.

Another assay concerns the target T2, human kidney urokinase (Homo sapiens, UniProt P00749).
T2 construct: purchased Sigma U5004; host or cells: human kidney cells
As to the kind of experiment: In vitro inhibition of purified enzymes, Ki determination: urokinase (uPA). The class given is biochemical.
Conditions: not given
The source says: Reagents: All buffer salts were obtained from Sigma Chemical Company (St. Louis, Mo.), and were of the highest purity available. The enzyme substrates, N-benzoyl-Phe-Val-Arg-p-nitroanilide (Sigma B7632), N-benzoyl-Ile-Glu-Gly-Arg-p-nitroanilide hydrochloride (Sigma B2291), N-p-tosyl-Gly-Pro-Lys-p-nitroanilide (Sigma T6140), N-succinyl-Ala-Ala-Pro-Phe-p-nitroanilide (Sigma S7388) and N-CBZ-Val-Gly-Arg-p-nitroanilide (Sigma C7271) were obtained from Sigma.
Human α-thrombin, human factor Xa and human plasmin were obtained from Enzyme Research Laboratories (South Bend, Ind.). Bovine α-chymotrypsin (Sigma C4129), bovine trypsin (Sigma T8642) and human kidney cell urokinase (Sigma U5004) were obtained from Sigma. Human leukocyte elastase was obtained from Elastin Products (Pacific, Mo.). Ki Determinations: All assays are based on the ability of the test compound to inhibit the enzyme catalyzed hydrolysis of a peptide p-nitroanilide substrate. […] The final concentrations for each of the substrates is listed below. In general, substrate concentrations are lower than the experimentally determined value for Km. Test compounds are prepared as a 1.0 mg/ml solution in DMSO. Dilutions are prepared in DMSO yielding 8 final concentrations encompassing a 200 fold concentration range. Enzyme solutions are prepared at the concentrations listed below in assay buffer.
Data corresponding to less than 10% of the total substrate hydrolysis were used in the calculations. The ratio of the velocity (rate of change in absorbance as a function of time) for a sample containing no test compound is divided by the velocity of a sample containing test compound, and is plotted as a function of test compound concentration. The data are fit to a linear regression, and the value of the slope of the line calculated. The inverse of the slope is the experimentally determined Ki value. Thrombin: Thrombin activity was assessed as the ability to hydrolyze the substrate N-succinyl-Ala-Ala-Pro-Arg-p-nitroanilide. […] Final DMSO concentration was 4.3%. […] Factor X [FXa]: FXa activity was assessed as the ability to hydrolyze the substrate N-benzoyl-Ile-Glu-Gly-Arg-p-nitroanilide hydrochloride. […] Final DMSO concentration was 4.3%. Purified activated human Factor X was diluted into assay buffer to a concentration of 300 nM. […] Plasmin: Plasmin activity was assessed as the ability to hydrolyze the N-p-Tosyl-Gly-Pro-Lys-p-nitroanilide. […] Final DMSO concentration was 4.3%. […] Chymotrypsin: Chymotrypsin activity was assessed as the ability to hydrolyze N-succinyl-Ala-Ala-Pro-Phe-p-nitroanilide. […] Final DMSO concentration was 4.3%. […] Trypsin: Trypsin activity was assessed as the ability to hydrolyze N-benzoyl-Phe-Val-Arg-p-nitroanilide. […] Final DMSO concentration was 4.3%. […] Elastase: Elastase activity was assessed as the ability to hydrolyze N-succinyl-Ala-Ala-Pro-Val-p-nitroanilide. […] Final DMSO concentration was 4.3%. […] Urokinase: Urokinase activity was assessed as the ability to hydrolyze N-CBZ-Val-Gly-Arg-p-nitroanilide. […] Final DMSO concentration was 4.3%. […] Final reagent concentrations were: [Urokinase]=40 nM, and N-CBZ-Val-Gly-Arg-p-nitroanilide]=[…].
Turning to `CSc1sc(C(=N)N)cc1Oc1ccccc1` [Example 288, 5-Methylthio-4-phenoxythiophene-2-carboxamidine trifluoroacetate], the Ki was in the range of 16 to 3500 nM.

Staying with this assay, now noted: uPA; substrate N-CBZ-Val-Gly-Arg-p-nitroanilide; [Urokinase]=40 nM; pH 7.5, 37° C.; one range stated for the listed compounds; read-out: Ki values for uPA.
Regarding `CSc1sc(C(=N)N)cc1NC(=O)c1ccc(Oc2cc(Cl)cc(Cl)c2)o1` [Example 233], the Ki was in the range of 16 to 3500 nM.

For the molecule `CSc1sc(C(=N)N)cc1-c1nc(-c2ccccc2)co1` [Example 84, 5-Methylthio-4-(4-phenyl(1,3-oxazol-2-yl))thiophene-2-carboxamidine hydrochloride], the Ki lay in the range of 16 to 3500 nM.

As for `CSc1sc(C(=N)N)cc1NC(=O)c1ccc2ccccc2n1` [Example 235, 5-Methylthio-4-(2-quinolylcarbonylamino)thiophene-2-carboxamidine], the Ki was in the range of 16 to 3500 nM.

Regarding `CSc1sc(C(=N)N)cc1N(S(=O)(=O)c1ccc(Cl)cc1)S(=O)(=O)c1ccc(Cl)cc1` [Example 281, 4-{Bis[(4-chlorophenyl)sulfonyl]amino}-5-methylthiothiophene-2-carboxamidine], the Ki was in the range of 16 to 3500 nM.

On to `CSc1sc(C(=N)N)cc1-c1nc(-c2ccccc2)c(-c2ccccc2)s1` [Example 131, 4-(4,5-Diphenyl(1,3-thiazol-2-yl))-5-methylthiothiophene-2-carboxamidine], for which the inhibitory constant (Ki) lay in the range of 16 to 3500 nM.

On to `CSc1sc(C(=N)N)cc1NC(=O)COc1ccccc1` [Example 239, 5-Methylthio-4-(2-phenoxyacetylamino)thiophene-2-carboxamidine], for which the inhibition constant Ki was 16 to 3500 nM.

As for `C[S+]([O-])c1sc(C(=N)N)cc1-c1nc(-c2ccc(Cl)cc2)cs1` (stereo not shown) [Example 138, 4-[4-(4-Chlorophenyl)(1,3-thiazol-2-yl)]-5-(methylsulfinyl)thiophene-2-carboxamidine], the inhibition constant (Ki) is 16 to 3500 nM.

Turning to `CSc1sc(C(=N)N)cc1-c1ncc(-c2ccccc2)o1` [Example 79, 5-Methylthio-4-(5-phenyl(1,3-oxazol-2-yl))thiophene-2-carboxamidine hydrochloride], the inhibition constant Ki lay within 16 to 3500 nM.

In the case of `CSc1sc(C(=N)N)cc1Nc1ncccn1` [Example 200, 5-Methylthio-4-(pyrimidin-2-ylamino)thiophene-2-carboxamidine hydrochloride], the Ki lay in the range of 16 to 3500 nM.

Regarding `CSc1sc(C(=N)N)cc1-c1nc(-c2cccc(OCC(=O)O)c2)cs1` [Example 40, 2-{3-[2-(5-Amidino-2-methylthio-3-thienyl)-1,3-thiazol-4-yl]phenoxy}acetic acid], the Ki was 16 to 3500 nM.

As for `CSc1sc(C(=N)N)cc1Nc1nc(-c2ccccc2)cs1` [Example 204, 5-Methylthio-4-[(4-phenyl(1,3-thiazol-2-yl))amino]thiophene-2-carboxamidine], the inhibitory constant (Ki) was in the range of 16 to 3500 nM.

`CSc1sc(C(=N)N)cc1C(=N)NCc1ccccc1` [Example 89, 4-{Imino[benzylamino]methyl}-5-methylthiothiophene-2-carboxamidine hydrochloride]: the inhibitory constant (Ki) fell in the range of 16 to 3500 nM.

Consider `CSc1sc(C(=N)N)cc1-c1nc(-c2cc(C(C)(C)C)nn2Cc2ccccc2)cs1` [Example 143, 4-{4-[3-(tert-Butyl)-1-benzylpyrazol-5-yl](1,3-thiazol-2-yl)}-5-methylthiothiophene-2-carboxamidine], for which the inhibition constant Ki was 16 to 3500 nM.

With `CSc1sc(C(=N)N)cc1Nc1ccc2ccccc2c1` [Example 208, 5-Methylthio-4-(2-naphthylamino)thiophene-2-carboxamidine], the inhibitory constant (Ki) lay within 16 to 3500 nM.

As for `CSc1sc(C(=N)N)cc1NCc1ccccc1` [Example 220, 5-Methylthio-4-[benzylamino]thiophene-2-carboxamidine], the inhibition constant (Ki) was 16 to 3500 nM.

Turning to `COc1ccc(OC)c(-c2csc(-c3cc(C(=N)N)sc3SC)n2)c1` [Example 28, 4-[4-(2,5-Dimethoxyphenyl)(1,3-thiazol-2-yl)]-5-methylthiothiophene-2-carboxamidine hydrochloride], the inhibition constant (Ki) was 16 to 3500 nM.

In the case of `CSc1sc(C(=N)N)cc1Nc1cccc([N+](=O)[O-])c1` [Example 213, 5-Methylthio-4-[(3-nitrophenyl)amino]thiophene-2-carboxamidine], the inhibition constant Ki is 16 to 3500 nM.

In the case of `COc1sc(C(=N)N)cc1-c1nc(-c2ccccc2)cs1` [Example 139, 5-Methoxy-4-(4-phenyl(1,3-thiazol-2-yl))thiophene-2-carboxamidine], the inhibition constant Ki is 16 to 3500 nM.

Turning to `CSc1sc(C(=N)N)cc1NC(=O)/C=C/c1ccccc1` [Example 227, 4-((2E)-3-Phenylprop-2-enoylamino)-5-methylthiothiophene-2-carboxamidine], the Ki fell in the range of 16 to 3500 nM.
